# Reference: PMC6777777 (PLoS ONE, 2019)
# Assays:
# [1] = molecular target: T1, nicotinic acetylcholine receptor (nAChR) from Torpedo californica (Tetronarce californica, UniProt P02710+P02712+P02714+P02718); test: Two-electrode voltage clamp: inhibition of carbachol-stimulated nAChR current; format: cell-based
# T1 construct: flash-frozen Torpedo electric organ was purchased from Aquatic Research Consultants (San Pedro, CA); tissue Aquatic Research Consultants (San Pedro, CA); host or cells: Torpedo electric organ; Membranes were solubilized in cholate, reconstituted in asolectin liposomes and microinjected as protein into Xenopus oocytes
# [2] = Titration curve of T3 (pK values); format: physicochemical
# [3] = molecular target: T1, nicotinic acetylcholine receptor (nAChR) from Torpedo californica; test: Two-electrode voltage clamp of oocytes injected with Torpedo nAChRs: inhibition of acetylcholine-stimulated current; format: cell-based; conditions: seen at ≥ 100 μM inhibitor, 30 μM acetylcholine
# Experimental: (§1) Sixteen hours after injection, the oocytes were clamped using a TEVC system. All ligands were dissolved in modified Barth’s solution at the indicated pH and were perfused into the chamber using a gravity-flow system. Thyroid hormones were initially dissolved in 0.1 M NaOH. […] Acetylcholine was applied to the bath surrounding the oocyte using a gravity-flow system at 10–13 mL/min. […] Each ligand perfusion lasted 60–70 seconds; after each perfusion, the bath solution was exchanged with ligand-free buffer until the current response signal had returned to baseline for at least 120 seconds before the next application of ligand(s). Data were recorded using iWorx LabScribe v1.959.
# [4] = molecular target: T1, nicotinic acetylcholine receptor (nAChR) from Torpedo californica; test: TEVC desensitization kinetics: decay response of nAChR current, slow component of two-exponential fit; format: cell-based; set-up: unit not given here
# Experimental: as §1
# The data were then trimmed to begin with the response as it reached 0.96 of the response peak (to avoid false inflection points by signal noise just after the response’s maximum point), and end 35 seconds post-peak. The data were then fit to a two-degree exponential function (i.e., slow and fast response; y=a×e^−(x/A1)+b×e^−(x/A2) ). […] For each ligand/environmental condition (n = 3, per condition), decay response and amplitude were calculated and averaged.
# T1 sequence (P02710 25-461): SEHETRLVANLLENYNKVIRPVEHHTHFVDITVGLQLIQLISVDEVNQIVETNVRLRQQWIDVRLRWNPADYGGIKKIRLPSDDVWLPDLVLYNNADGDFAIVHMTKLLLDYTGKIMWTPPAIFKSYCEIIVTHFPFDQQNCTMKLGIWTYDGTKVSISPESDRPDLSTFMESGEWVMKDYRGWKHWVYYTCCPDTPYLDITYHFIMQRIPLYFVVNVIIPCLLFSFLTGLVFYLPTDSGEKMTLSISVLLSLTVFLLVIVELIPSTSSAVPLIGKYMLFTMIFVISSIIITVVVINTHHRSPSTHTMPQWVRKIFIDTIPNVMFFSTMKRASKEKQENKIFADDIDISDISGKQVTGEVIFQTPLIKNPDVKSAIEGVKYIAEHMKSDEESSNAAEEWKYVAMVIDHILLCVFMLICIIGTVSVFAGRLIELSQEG
# T1 sequence (P02712 25-493): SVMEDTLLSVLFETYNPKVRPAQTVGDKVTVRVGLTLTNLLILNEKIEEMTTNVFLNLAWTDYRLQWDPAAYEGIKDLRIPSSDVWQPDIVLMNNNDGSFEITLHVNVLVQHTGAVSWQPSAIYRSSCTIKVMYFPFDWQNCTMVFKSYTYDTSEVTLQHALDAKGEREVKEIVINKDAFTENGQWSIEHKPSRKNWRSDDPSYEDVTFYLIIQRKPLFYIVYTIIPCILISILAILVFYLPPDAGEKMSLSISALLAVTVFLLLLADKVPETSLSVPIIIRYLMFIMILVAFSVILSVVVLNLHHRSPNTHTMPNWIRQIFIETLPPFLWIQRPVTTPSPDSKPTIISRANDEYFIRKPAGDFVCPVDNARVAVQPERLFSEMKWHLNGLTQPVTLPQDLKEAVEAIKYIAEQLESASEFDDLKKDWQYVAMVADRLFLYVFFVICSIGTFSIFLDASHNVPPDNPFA
# T1 sequence (P02714 18-506): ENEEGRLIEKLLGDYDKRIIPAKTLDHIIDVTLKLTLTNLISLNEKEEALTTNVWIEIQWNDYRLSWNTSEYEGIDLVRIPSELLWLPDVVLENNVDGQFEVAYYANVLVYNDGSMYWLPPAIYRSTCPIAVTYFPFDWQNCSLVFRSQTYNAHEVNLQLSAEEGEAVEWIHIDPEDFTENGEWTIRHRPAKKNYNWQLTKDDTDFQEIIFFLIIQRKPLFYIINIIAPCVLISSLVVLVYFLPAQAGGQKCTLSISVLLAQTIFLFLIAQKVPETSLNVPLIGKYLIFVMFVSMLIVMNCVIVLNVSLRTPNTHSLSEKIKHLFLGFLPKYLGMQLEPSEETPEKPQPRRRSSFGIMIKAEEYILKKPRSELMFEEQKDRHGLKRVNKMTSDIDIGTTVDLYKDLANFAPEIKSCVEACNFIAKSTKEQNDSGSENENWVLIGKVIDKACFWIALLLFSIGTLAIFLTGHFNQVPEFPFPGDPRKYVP
# T1 sequence (P02718 22-522): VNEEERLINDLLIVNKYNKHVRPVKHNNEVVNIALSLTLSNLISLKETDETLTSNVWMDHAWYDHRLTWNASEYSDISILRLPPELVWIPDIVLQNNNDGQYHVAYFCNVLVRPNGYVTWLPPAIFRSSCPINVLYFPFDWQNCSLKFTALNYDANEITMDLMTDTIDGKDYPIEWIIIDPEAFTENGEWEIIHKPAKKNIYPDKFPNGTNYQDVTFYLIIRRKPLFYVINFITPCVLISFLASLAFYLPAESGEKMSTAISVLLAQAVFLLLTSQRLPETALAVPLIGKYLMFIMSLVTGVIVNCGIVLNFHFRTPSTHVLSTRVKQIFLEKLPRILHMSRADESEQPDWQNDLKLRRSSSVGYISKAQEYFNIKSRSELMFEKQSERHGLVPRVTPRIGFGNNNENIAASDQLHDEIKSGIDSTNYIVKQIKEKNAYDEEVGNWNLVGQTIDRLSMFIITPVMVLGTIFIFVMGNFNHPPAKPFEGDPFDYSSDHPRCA
compound,measurement,setting,value
"CC(=O)[C@H]1CC[C@H]2[C@@H]3CC[C@H]4C[C@H](O)CC[C@]4(C)[C@H]3CC[C@]12C [Allopregnanolone, 3α-hydroxy-5α-pregnan-20-one]",IC50,[1],20 µM
"N[C@@H](Cc1cc(I)c(Oc2ccc(O)c(I)c2)c(I)c1)C(=O)O [T3, L-3,3’,5-triiodothyronine]","pK3, hydroxy group",[2],12.25
pregnenolone sulfate [PS],apparent maximal effect: reduction of the nAChR control response,[3],81 ± 4%
same,Decay Response Mean,"[4]; dose 0.1 μM, pH 6, 30 μM acetylcholine",17.0
same,Decay Response Mean,"[4]; dose 0.1 μM, pH 6.5, 30 μM acetylcholine",26.2
same,Decay Response Mean,"[4]; dose 0.1 μM, pH 7, 30 μM acetylcholine",32.7
same,Decay Response Mean,"[4]; dose 0.1 μM, pH 7.5, 30 μM acetylcholine",32.3
same,Decay Response Mean,"[4]; dose 0.1 μM, pH 8, 30 μM acetylcholine",20.8
same,Decay Response Mean,"[4]; dose 0.1 μM, pH 8.5, 30 μM acetylcholine",7.9
same,Decay Response Mean,"[4]; dose 0.1 μM, pH 9, 30 μM acetylcholine",31.9
same,Decay Response Mean,"[4]; dose 1 μM, pH 6, 30 μM acetylcholine",8.1
same,Decay Response Mean,"[4]; dose 1 μM, pH 6.5, 30 μM acetylcholine",24.9
same,Decay Response Mean,"[4]; dose 1 μM, pH 7, 30 μM acetylcholine",13.0
same,Decay Response Mean,"[4]; dose 1 μM, pH 7.5, 30 μM acetylcholine",11.9
same,Decay Response Mean,"[4]; dose 1 μM, pH 8, 30 μM acetylcholine",9.4
same,Decay Response Mean,"[4]; dose 1 μM, pH 8.5, 30 μM acetylcholine",1.2
same,Decay Response Mean,"[4]; dose 1 μM, pH 9, 30 μM acetylcholine",18.5
same,Decay Response Mean,"[4]; dose 10 μM, pH 6, 30 μM acetylcholine",10.5
same,Decay Response Mean,"[4]; dose 10 μM, pH 6.5, 30 μM acetylcholine",11.00
same,Decay Response Mean,"[4]; dose 10 μM, pH 7, 30 μM acetylcholine",4.6
same,Decay Response Mean,"[4]; dose 10 μM, pH 7.5, 30 μM acetylcholine",4.8
same,Decay Response Mean,"[4]; dose 10 μM, pH 8, 30 μM acetylcholine",3.0
same,Decay Response Mean,"[4]; dose 10 μM, pH 8.5, 30 μM acetylcholine",3.2
